From patent US20240131155A1, “T CELLS FOR USE IN THERAPY” (Erasmus University Medical Center Rotterdam, priority 2021, published 2024)
Peptide text beside a SMILES is read from it.

Legend:
[1] = tested on: ROPN1 or ROPN1B over-expressing MDA-MB231 tumor cells; assay: IFNg production of TCR T cells co-cultured with ROPN1 or ROPN1B over-expressing tumor cells (endogenously processed epitope); type: cell-based, human; settings: Table 4; responding TCRs / TCRs tested, T cells transduced with TCR specific for the epitope
Method: In a first series of in vitro tests, TCR-transduced T cells (6×10^4/well in a 96-well plate) were co-cultured with ROPN1 or ROPN1B over-expressing MDA-MB231 tumor cells (2×10^4/well) in a total volume of 200 μl of T cell medium for 24 h at 37° C. The ROPN1 or ROPN1B over-expressing tumor cells were generated as described under ‘generation and culture of cell lines and T cells’ (see above), and tumor cells were pre-treated 48 h with IFN-Y before co-culture with T cells. […] T cells that fulfilled these criteria (examples in FIG. 10A) were assessed for their sensitivity towards their cognate epitope. […] EC50 values were calculated using GraphPad Prism 5 software.

[2] = biological target: peptide:MHC (Homo sapiens, UniProt P04439, D140Y/D185E/D98H/E176V/E277Q/G131W/G231S/I119V/I121R/I166T/I218V/N151K/N90K/P208A/P217A/Q86G/Q94H/R138H/R169H); assay: TCR gene transfer into healthy donor T cells, surface expression by pMHC staining; type: cell-based; settings: Table 4; T cells transduced with TCR specific for the epitope
Description: (§1) Identified TCRα and TCRβ genes were codon optimized (GeneArt, Regensburg, Germany) and cloned into the pMP71 vector (a kind gift of prof. Wolfgang Uckert, MDC, Berlin, Germany) using a TCRβ-2A-TCRα cassette that was flanked by NotI and EcoRI restriction sites. Upon activation with anti-CD3 mAb OKT3, PBMCs from healthy donors were transduced with TCR-encoding retroviruses (pMP71) or empty vector that were produced by a co-culture of 293T and Phoenix-Ampho packaging cells, as described previously in Lamers et al., Cancer Gene Ther.;13(5):503-509 (2006), doi:10.1038/sj.cgt.7700916, and Straetemans G, Clin Dev Immunol, 2012. Staining for surface-expressed TCR transgenes was performed as described above (FIG. 5A,B).
as §1, with “TCRα” for “Identified TCRα”, “TCR13-2A-TCRα” for “TCRβ-2A-TCRα”, “2012.” for “2012. Staining for surface-expressed TCR transgenes was performed as described above (FIG. 5A,B).”
Staining for surface-expressed TCR transgenes was performed as described above. […] Note that for a single epitope (EVI; SEQ ID NO:24) pMHC complexes were insensitive to detect TCR T cells and replaced by stainings with antibodies directed against TCR-Vb7.1 and CD137. The expression of CD137 was measured following 48 h stimulation with EVI epitope-loaded BSM cells, and threshold for inclusion again being expression in more than 5% of cells in the CD3-positive cell population in at least 2 donors.

[3] = tested on: CD8+ T cells; assay: peptide:MHC multimer/tetramer staining of enriched T cells (flow cytometry); type: cell-based, human; settings: for pMHC staining % pMHC+ CD8+ in CD3+: Table 4, enriched T cells after enrichment cycles
Method: Enrichment of epitope-specific CD8 T cells was performed according to the protocol described by Butler et al., Clin Cancer Res.;13(6):1857-1867 (2007), doi:10.1158/1078-0432, but included the following amendments. CD8+ T lymphocytes were collected from PBMCs by magnetic-activated cell sorting (MACS) according to the CD8 isolation kit (Miltenyi Biotec). CD8+ T cells with >95% purity were subsequently cultured in T cell medium supplemented with IL-2 (36 IU/mL; but no gentamycin) for 1 day, after which expansion cycles started. K562ABC cells (kindly provided by prof. Bruce Levine, University of Pennsylvania, PA) were loaded with 10 μg/ml ROPN1 and/or ROPN1B peptide and incubated for 5 h at RT in serum-free medium, after which cells were washed and fixed with 0,1% paraformaldehyde. After washing, K562ABC cells were suspended at 0.1×10^6/mL and co-cultured with T cells in a 1:20 ratio. IL-2 (36 IU/mL) and IL-15 ([…]) were added at days 1 and 3 days after start of co-culture, and after 6 days, T cells were counted, suspended at 2×10^6/mL and rested for 1 day, after which the next cycle commenced (this schedule continued up to 4 or 5 cycles). Following 4 and 5 cycles, T cells were stained with pMHC multimers (HLA*0201/MLN, Immudex, Copenhagen, Denmark). pMHC-PE were pre-incubated at RT for 10 min followed by incubation with 7AAD, anti-CD3-FITC and anti-CD8-APC for 20 min. Cells were fixed with 1% paraformaldehyde and TCR expression was measured with flow cytometry and analyzed using FlowJoX software. FIG. 4A schematically depicts the procedure to enrich epitope-specific T cells, and obtainthe corresponding TCR genes.
Following enrichment, T cells were tested for ROPN1 and/or ROPN1B epitope-specific IFNY production. To this end, T2 cells (1×10^6/mL) were loaded with peptide (20 ng/mL) for 30 min, after which T cells (1×10^5) were cultured in a 1:1 ratio with T2 cells in a round bottom 96-wells plate for 18 h. Supernatant was collected and IFN-γ production was measured with an Enzyme-linked immunosorbent assay (ELISA, BioLegend) according to the manufacturer's protocol (FIG. 9A). T2 cells loaded with an irrelevant peptide were included as a negative control. T cell IFNg production was considered epitope-specific in case levels exceeded 200 pg/ml, and levels were minimally twice as high as for irrelevant peptide (see for full listing of criteria, FIG. 8). T cells that fulfilled these criteria were stained with peptide:MHC (pMHC) tetramers to determine the frequency of epitope-specific T cells. Empty Loadable HLA Tetramers (5 μL, Tetramer shop, Kongens Lyngby, Denmark) were incubated with 0.5 μL peptide (200 μM) for 30 min on ice. Complexes of pMHC were centrifuged (3300 g, 5 min) and incubated with 0.1×10^6 T cells for 15 min at 37° C. in the dark. Next, an antibody cocktail containing CD3-FITC (1:30, BD) and CD8-APC (1:300, eBiosciences) was added and incubated for an additional 30 min at 4° C. in the dark. Finally, T cells were washed twice and fixed with 1% paraformaldehyde (PFA), after which events were acquired with FACSCelesta (BD) and analyzed using FlowJoX software.

Surface expression % pMHC+ in CD3+ [2] [%] | Compound | T cell responses observed (IFNg) against endogenously presented epitope [1] | pMHC staining % pMHC+ CD8+ in CD3+ [3] [%] | enriched T cells binding MLN/HLA-A2 complexes ([3]; after 4 cycles of co-culture with epitope-loaded aAPC) [%] | enriched T cells binding MLN/HLA-A2 complexes ([3]; after 5 cycles of co-culture with epitope-loaded aAPC) [%]
49.7 | CSCC[C@H](NC(=O)[C@H](CCC(N)=O)NC(=O)[C@H](C)N)C(=O)N[C@@H](Cc1c[nH]c2ccccc12)C(=O)N[C@@H](CCCCN)C(=O)N[C@H](C(=O)N[C@H](C(=O)N[C@@H](CC(N)=O)C(=O)N[C@@H](CC(C)C)C(=O)O)C(C)C)C(C)C (H-AQMWKVVNL-OH; N-terminus and C-terminus assumed) | 0/1 responses | 2.58 | – | –
5.02 | CC[C@H](C)[C@H](NC(=O)[C@H](Cc1ccc(O)cc1)NC(=O)[C@@H](NC(=O)[C@H](Cc1ccc(O)cc1)NC(=O)[C@H](CC(C)C)NC(=O)[C@@H](N)Cc1ccccc1)[C@@H](C)O)C(=O)N[C@@H](C)C(=O)N[C@@H](CCC(=O)O)C(=O)N[C@H](C(=O)O)C(C)C (H-FLYTYIAEV-OH; N-terminus and C-terminus assumed) | 1/1 responses | 1.34 | – | –
33.2 | CC[C@H](C)[C@H](NC(=O)[C@H](Cc1ccc(O)cc1)NC(=O)[C@@H](NC(=O)[C@H](Cc1ccc(O)cc1)NC(=O)[C@H](CC(C)C)NC(=O)[C@@H](N)Cc1ccccc1)[C@@H](C)O)C(=O)N[C@@H](C)C(=O)N[C@@H](CCCCN)C(=O)N[C@H](C(=O)O)C(C)C (H-FLYTYIAKV-OH; N-terminus and C-terminus assumed) | 1/1 responses | 2.76 | – | –
49.7 | CC[C@H](C)[C@H](NC(=O)[C@H](Cc1ccc(O)cc1)NC(=O)[C@H](CC(N)=O)NC(=O)[C@H](CC(C)C)NC(=O)[C@@H](N)CCSC)C(=O)N[C@@H](CCC(=O)O)C(=O)N[C@@H](CCC(N)=O)C(=O)N[C@@H](CCC(=O)O)C(=O)N[C@H](C(=O)O)C(C)C (H-MLNYIEQEV-OH; N-terminus and C-terminus assumed) | 0/2 responses | 13.3 | 20 | 62
